Earlier results, collected in patent US20080139615A1, “COMBINATION OF A HYPNOTIC AGENT AND R (+)-ALPHA-(2,3-DIMETHOXY-PHENYL)-1-[2-(4-FLUOROPHENYL)ETHYL]-4-PIPERIDINEMETHANOL AND THERAPEUTIC APPLICATION THEREOF” (priority 2005, published 2008).

Experiments:
[1] = system: slow wave sleep (SWS), arousals; settings: patients with sleep maintenance insomnia
[2] = average dosage between 5 and 10 mg, conventional formulation

| SMILES | SWS (slow wave sleep) [1] | acting time [2] | half life (average value) [2] |
| --- | --- | --- | --- |
| COc1cccc([C@H](O)C2CCN(CCc3ccc(F)cc3)CC2)c1OC [Compound A, R-(+)-α-(2,3-dimethoxyphenyl)-1-[2-(4-fluorophenyl)ethyl]-4-piperidinemethanol] | increase |  |  |
| Cc1ccc(-c2nc3ccc(C)cn3c2CC(=O)N(C)C)cc1 [Zolpidem, zolpidem] |  | up to 6 hours | about 2.4 hours |
